Experimental data reported in PubChem BioAssay AID1745844 (Carcinogenic Potency Database (CPDB), 2022).
Calls of active or inactive are those of the source. The rule behind the calls is not given here.

Tested on: rodent lifetime carcinogenesis bioassay, tumor incidence TD50
Experiment: carcinogenic potency in animals, long-term in vivo studies, CPDB compilation (AID 1745844)

SMILES: O=NN(CCO)CCO
- carcinogen call (rat, strain F344/DuCrj, males, in drinking water, site: liver, lesion: one or several types, types not named, dosed 40 weeks, study length 78 weeks): negative (inactive)
- TD50 (rat, strain Fischer 344, females, in drinking water, site: esophagus, lesion: papilloma, dosed 55 weeks, study length 105 weeks): 2050 mg/kg/day
- TD50 (rat, strain Fischer 344, females, in drinking water, site: kidney, lesion: one or several types, types not named, dosed 55 weeks, study length 105 weeks): 327 mg/kg/day
- TD50 (rat, strain Fischer 344, females, in drinking water, site: kidney, lesion: several types, types named in the paper, dosed 75 weeks, study length 130 weeks): 42.2 mg/kg/day
- TD50 (rat, strain Fischer 344, females, in drinking water, site: liver, lesion: cholangioadenoma/carcinoma, dosed 75 weeks, study length 130 weeks): 56.8 mg/kg/day
- TD50 (rat, strain Fischer 344, females, in drinking water, site: liver, lesion: cholangiocarcinoma, dosed 55 weeks, study length 105 weeks): 197 mg/kg/day
- TD50 (rat, strain Fischer 344, females, in drinking water, site: liver, lesion: hemangiosarcoma, dosed 50 weeks, study length 120 weeks): 45.4 mg/kg/day
- TD50 (rat, strain Fischer 344, females, in drinking water, site: liver, lesion: hepatocellular carcinoma, dosed 50 weeks, study length 120 weeks): 1.94 mg/kg/day
- TD50 (rat, strain Fischer 344, females, in drinking water, site: liver, lesion: hepatocellular carcinoma, dosed 55 weeks, study length 105 weeks): 3.27 mg/kg/day
- TD50 (rat, strain Fischer 344, females, in drinking water, site: liver, lesion: hepatocellular carcinoma, dosed 75 weeks, study length 130 weeks): 4.05 mg/kg/day
- TD50 (rat, strain Fischer 344, females, in drinking water, site: liver, lesion: neoplastic nodule, dosed 75 weeks, study length 130 weeks): 2.93 mg/kg/day
- TD50 (rat, strain Fischer 344, females, in drinking water, site: liver, lesion: several types, types named in the paper, dosed 75 weeks, study length 130 weeks): 1.9 mg/kg/day
- TD50 (rat, strain Fischer 344, females, in drinking water, site: nasal cavity, lesion: adenocarcinoma, dosed 55 weeks, study length 105 weeks): 44.1 mg/kg/day
- TD50 (rat, strain Fischer 344, females, in drinking water, site: nasal cavity, lesion: olfactory carcinoma, dosed 55 weeks, study length 105 weeks): 128 mg/kg/day
- TD50 (rat, strain Fischer 344, females, in drinking water, site: nasal cavity, lesion: squamous-cell carcinoma, dosed 55 weeks, study length 105 weeks): 4320 mg/kg/day
- TD50 (rat, strain Fischer 344, males, in drinking water, site: esophagus, lesion: carcinoma, dosed 48 weeks, study length 95 weeks): 432 mg/kg/day
- TD50 (rat, strain Fischer 344, males, in drinking water, site: esophagus, lesion: papilloma, dosed 48 weeks, study length 95 weeks): 207 mg/kg/day
- TD50 (rat, strain Fischer 344, males, in drinking water, site: kidney, lesion: one or several types, types not named, dosed 48 weeks, study length 95 weeks): 99.7 mg/kg/day
- TD50 (rat, strain Fischer 344, males, in drinking water, site: kidney, lesion: several types, types named in the paper, dosed 75 weeks, study length 125 weeks): 19 mg/kg/day
- TD50 (rat, strain Fischer 344, males, in drinking water, site: liver, lesion: cholangioadenoma/carcinoma, dosed 75 weeks, study length 125 weeks): 38.6 mg/kg/day
- TD50 (rat, strain Fischer 344, males, in drinking water, site: liver, lesion: cholangiocarcinoma, dosed 48 weeks, study length 95 weeks): 23.9 mg/kg/day
- TD50 (rat, strain Fischer 344, males, in drinking water, site: liver, lesion: hepatocellular carcinoma, dosed 48 weeks, study length 95 weeks): 2.77 mg/kg/day
- TD50 (rat, strain Fischer 344, males, in drinking water, site: liver, lesion: hepatocellular carcinoma, dosed 75 weeks, study length 125 weeks): 9.03 mg/kg/day
- TD50 (rat, strain Fischer 344, males, in drinking water, site: liver, lesion: neoplastic nodule, dosed 75 weeks, study length 125 weeks): 3.93 mg/kg/day
- TD50 (rat, strain Fischer 344, males, in drinking water, site: liver, lesion: several types, types named in the paper, dosed 75 weeks, study length 125 weeks): 2.84 mg/kg/day
- TD50 (rat, strain Fischer 344, males, in drinking water, site: nasal cavity, lesion: adenocarcinoma, dosed 48 weeks, study length 95 weeks): 15.5 mg/kg/day
- TD50 (rat, strain Fischer 344, males, in drinking water, site: nasal cavity, lesion: olfactory carcinoma, dosed 48 weeks, study length 95 weeks): 50.4 mg/kg/day
- TD50 (rat, strain Fischer 344, males, in drinking water, site: nasal cavity, lesion: squamous-cell carcinoma, dosed 48 weeks, study length 95 weeks): 280 mg/kg/day
- TD50 (rat, strain Sprague-Dawley, males, in drinking water, site: all sites, lesion: one or several types, types not named, dosed 162 weeks, study length 167 weeks): 55.6 mg/kg/day
- TD50 (rat, strain Sprague-Dawley, males, in drinking water, site: any site (literature study), lesion: benign tumor, dosed 162 weeks, study length 167 weeks): 7.93 mg/kg/day
- TD50 (rat, strain Sprague-Dawley, males, in drinking water, site: any site (literature study), lesion: malignant tumor, dosed 162 weeks, study length 167 weeks): 23.5 mg/kg/day
- TD50 (rat, strain Sprague-Dawley, males, in drinking water, site: gastrointestinal tract, lesion: several types, types named in the paper, dosed 162 weeks, study length 167 weeks): 143 mg/kg/day
- TD50 (rat, strain Sprague-Dawley, males, in drinking water, site: liver, lesion: cholangiocarcinoma, ductular, dosed 118 weeks, study length 147 weeks): 10700 mg/kg/day
- TD50 (rat, strain Sprague-Dawley, males, in drinking water, site: liver, lesion: hemangioendothelioma, benign, dosed 162 weeks, study length 167 weeks): 126 mg/kg/day
- TD50 (rat, strain Sprague-Dawley, males, in drinking water, site: liver, lesion: hepatocellular adenocarcinoma, dosed 118 weeks, study length 147 weeks): 9.51 mg/kg/day
- TD50 (rat, strain Sprague-Dawley, males, in drinking water, site: liver, lesion: hepatocellular adenoma, dosed 162 weeks, study length 167 weeks): 347 mg/kg/day
- TD50 (rat, strain Sprague-Dawley, males, in drinking water, site: liver, lesion: hepatocellular carcinoma, dosed 162 weeks, study length 167 weeks): 70.4 mg/kg/day
- TD50 (rat, strain Sprague-Dawley, males, in drinking water, site: liver, lesion: several types, types named in the paper, dosed 118 weeks, study length 147 weeks): 8.23 mg/kg/day
- TD50 (rat, strain Sprague-Dawley, males, in drinking water, site: liver, lesion: several types, types named in the paper, dosed 162 weeks, study length 167 weeks): 38.4 mg/kg/day
- TD50 (rat, strain Sprague-Dawley, males, in drinking water, site: nasal cavity, lesion: olfactory neuroepithelioma, dosed 118 weeks, study length 147 weeks): 679 mg/kg/day
- TD50 (rat, strain Sprague-Dawley, males, in drinking water, site: nasal cavity, lesion: several types, types named in the paper, dosed 118 weeks, study length 147 weeks): 168 mg/kg/day
- TD50 (rat, strain Sprague-Dawley, males, in drinking water, site: nasal cavity, lesion: squamous-cell carcinoma, dosed 118 weeks, study length 147 weeks): 954 mg/kg/day
- TD50 (rat, strain Sprague-Dawley, males, in drinking water, site: nervous system, lesion: one or several types, types not named, dosed 162 weeks, study length 167 weeks): 42.5 mg/kg/day

SMILES: O=NN1CCCCCCCCCCCC1
- TD50 (rat, strain NZR/Gd, females, by gavage, site: liver, lesion: hepatocellular tumor, dosed 52 weeks, study length 171 weeks): 10.9 mg/kg/day
- TD50 (rat, strain NZR/Gd, females, by gavage, site: lung, lesion: several types, types named in the paper, dosed 52 weeks, study length 171 weeks): 7.96 mg/kg/day
- TD50 (rat, strain NZR/Gd, males, by gavage, site: heart, lesion: one or several types, types not named, dosed 52 weeks, study length 150 weeks): 2.15 mg/kg/day
- TD50 (rat, strain NZR/Gd, males, by gavage, site: liver, lesion: hepatocellular tumor, dosed 52 weeks, study length 150 weeks): 16.8 mg/kg/day
- TD50 (rat, strain NZR/Gd, males, by gavage, site: lung, lesion: several types, types named in the paper, dosed 52 weeks, study length 150 weeks): 14.6 mg/kg/day

SMILES: N[C@@H](Cc1c[nH]c2ccccc12)C(=O)O
- carcinogen call (mouse, strain B6C3F1, females, in feed, site: any site (literature study), lesion: several types, types named in the paper, dosed 78 weeks, study length 104 weeks): negative (inactive)
- TD50 (mouse, strain B6C3F1, females, in feed, site: liver, lesion: hepatocellular adenoma + hepatocellular carcinoma + neoplastic nodule, dosed 78 weeks, study length 104 weeks): 30200 mg/kg/day
- TD50 (mouse, strain B6C3F1, males, in feed, site: any site (literature study), lesion: several types, types named in the paper, dosed 78 weeks, study length 104 weeks): 1470 mg/kg/day (inactive)
- carcinogen call (rat, strain Fischer 344, females, in feed, site: any site (literature study), lesion: several types, types named in the paper, dosed 78 weeks, study length 104 weeks): negative (inactive)
- carcinogen call (rat, strain Fischer 344, males, in feed, site: any site (literature study), lesion: several types, types named in the paper, dosed 78 weeks, study length 104 weeks): negative (inactive)
- carcinogen call (rat, strain Fischer, males, in feed, site: urinary bladder, lesion: several types, types named in the paper, dosed 100 weeks, study length 104 weeks): negative (inactive)

SMILES: CN(N=O)c1ccc(F)cc1
- TD50 (rat, strain Fischer 344, males, in drinking water, site: esophagus, lesion: several types, types named in the paper, dosed 50 weeks, study length 114 weeks): 0.255 mg/kg/day
- TD50 (rat, strain Fischer 344, males, in drinking water, site: liver, lesion: hyperplastic nodule, dosed 50 weeks, study length 114 weeks): 10.3 mg/kg/day

SMILES: O=C(O)c1cc(Oc2ccc(C(F)(F)F)cc2Cl)ccc1[N+](=O)[O-]
- TD50 (mouse, strain B6C3F1, females, in feed, site: liver, lesion: hepatocellular adenoma, dosed 78 weeks, study length 78 weeks): 434 mg/kg/day
- TD50 (mouse, strain B6C3F1, females, in feed, site: liver, lesion: hepatocellular carcinoma, dosed 78 weeks, study length 78 weeks): 1380 mg/kg/day
- TD50 (mouse, strain B6C3F1, females, in feed, site: liver, lesion: several types, types named in the paper, dosed 78 weeks, study length 78 weeks): 328 mg/kg/day
- TD50 (mouse, strain B6C3F1, females, in feed, site: stomach, lesion: papilloma, dosed 78 weeks, study length 78 weeks): 1050 mg/kg/day
- TD50 (mouse, strain B6C3F1, males, in feed, site: liver, lesion: hepatocellular adenoma, dosed 78 weeks, study length 78 weeks): 331 mg/kg/day
- TD50 (mouse, strain B6C3F1, males, in feed, site: liver, lesion: hepatocellular carcinoma, dosed 78 weeks, study length 78 weeks): 395 mg/kg/day
- TD50 (mouse, strain B6C3F1, males, in feed, site: liver, lesion: several types, types named in the paper, dosed 78 weeks, study length 78 weeks): 149 mg/kg/day
- TD50 (mouse, strain B6C3F1, males, in feed, site: stomach, lesion: papilloma, dosed 78 weeks, study length 78 weeks): 2050 mg/kg/day
- TD50 (mouse, strain Charles River CD1, females, in feed, site: liver, lesion: hepatocellular adenoma, dosed 104 weeks, study length 104 weeks): 160 mg/kg/day
- TD50 (mouse, strain Charles River CD1, females, in feed, site: liver, lesion: hepatocellular carcinoma, dosed 104 weeks, study length 104 weeks): 715 mg/kg/day
- TD50 (mouse, strain Charles River CD1, females, in feed, site: liver, lesion: several types, types named in the paper, dosed 104 weeks, study length 104 weeks): 126 mg/kg/day
- TD50 (mouse, strain Charles River CD1, males, in feed, site: liver, lesion: hepatocellular adenoma, dosed 104 weeks, study length 104 weeks): 187 mg/kg/day
- TD50 (mouse, strain Charles River CD1, males, in feed, site: liver, lesion: hepatocellular carcinoma, dosed 104 weeks, study length 104 weeks): 307 mg/kg/day
- TD50 (mouse, strain Charles River CD1, males, in feed, site: liver, lesion: several types, types named in the paper, dosed 104 weeks, study length 104 weeks): 93.8 mg/kg/day

SMILES: CCCCCCCCCCCCN=C(N)N
- carcinogen call (mouse, strain B6AKF1, females, oral dosing, site: any site (literature study), lesion: several types, types named in the paper, dosed 76 weeks, study length 76 weeks): negative (inactive)
- carcinogen call (mouse, strain B6AKF1, females, oral dosing, site: liver, lesion: hepatoma, dosed 76 weeks, study length 76 weeks): negative (inactive)
- carcinogen call (mouse, strain B6AKF1, females, oral dosing, site: lung, lesion: adenoma, dosed 76 weeks, study length 76 weeks): negative (inactive)
- TD50 (mouse, strain B6AKF1, males, oral dosing, site: any site (literature study), lesion: several types, types named in the paper, dosed 76 weeks, study length 76 weeks): 149 mg/kg/day (inactive)
- carcinogen call (mouse, strain B6AKF1, males, oral dosing, site: liver, lesion: hepatoma, dosed 76 weeks, study length 76 weeks): negative (inactive)
- TD50 (mouse, strain B6AKF1, males, oral dosing, site: lung, lesion: several types, types named in the paper, dosed 76 weeks, study length 76 weeks): 41.9 mg/kg/day (inactive)
- TD50 (mouse, strain B6C3F1, females, oral dosing, site: any site (literature study), lesion: several types, types named in the paper, dosed 76 weeks, study length 76 weeks): 54.7 mg/kg/day (inactive)
- TD50 (mouse, strain B6C3F1, females, oral dosing, site: liver, lesion: hepatoma, dosed 76 weeks, study length 76 weeks): 54.7 mg/kg/day (inactive)
- carcinogen call (mouse, strain B6C3F1, females, oral dosing, site: lung, lesion: several types, types named in the paper, dosed 76 weeks, study length 76 weeks): negative (inactive)
- TD50 (mouse, strain B6C3F1, males, oral dosing, site: any site (literature study), lesion: several types, types named in the paper, dosed 76 weeks, study length 76 weeks): 10.8 mg/kg/day (inactive)
- TD50 (mouse, strain B6C3F1, males, oral dosing, site: liver, lesion: hepatoma, dosed 76 weeks, study length 76 weeks): 19.4 mg/kg/day (inactive)
- TD50 (mouse, strain B6C3F1, males, oral dosing, site: lung, lesion: adenoma, dosed 76 weeks, study length 76 weeks): 30.1 mg/kg/day (inactive)
